From patent US20090054392A1, “NAPHTHYLPYRIMIDINE, NAPHTHYLPYRAZINE AND NAPHTHYLPYRIDAZINE ANALOGS AND THEIR USE AS AGONISTS OF THE WNT-BETA-CATENIN CELLULAR MESSAGING SYSTEM” (Wyeth, priority 2007, published 2009) come the findings set out here.

Molecules are shown by their SMILES. Read-outs that look alike come from different tables or passages of the source.

The test system of the data set is Dkk1-LRP5-TCF-Luciferase. The data set can be described thus: Functional Dkk1-LRP5-TCF-Luciferase Assay in U2OS Cells. The note with it: for fold induction at 20 µM / fold induction at 2 µM / EC50: Homo sapiens, U2OS; for A = MAX FOLD Induction/DMSO CONTROL: maximum fold induction over DMSO control.
Setting [1] is: read-out: C = TCF ACTIVITY/DMSO CONTROL Fold induction @ 20.0 uM, 20.0 uM compound.
Where [2] appears, read: read-out: B = TCF ACTIVITY/DMSO CONTROL Fold induction @ 2.0 uM, 2.0 uM compound.
Where [3] appears, read: read-out: B = TCF ACTIVITY/DMSO CONTROL Fold induction @ 2.0 uM.
[4] abbreviates: read-out: C = TCF ACTIVITY/DMSO CONTROL Fold induction @ 20.0 uM.

Protocol: Biological Evaluation—Functional Dkk1-LRP5-TCF-Luciferase Assay in U2OS Cells
Frozen U2OS-Dkk1-HTS Reporter cells generation: U2OS Human Bone derived cells (Osteosarcoma) are grown in McCoy's 5A Medium (Modified), with L -glutamine (GIBCO Cat No. 16600-082)+1% Pen-Strep+5% FBS) plated at 1×10^7 cells/T175 cm flask. The next day, the cells are co-transfected overnight with the following plasmids: (a) Test reporter (16×TCF-TK-FireFly-Luci), (b) Internal Control Reporter (TK-Renilla-Luci), (c) Wnt3a and (d) Dkk1. GIBCO's Lipofectamine 2000 and OptiMEM are used for the transfection. After a minimum of 4 hr of transfection at 37° C., the plasmid-transfected cells are trypsinized, counted, and suspended in freezing medium (95% FBS+5% DMSO). The reporter cells are frozen at 1×10^7/ml concentrations, aliquoted into 0.5 ml or 2.5 ml/tube and stored at 70° C.
The following day, test compounds are added under HTS setup by Plate Track into 384 well plates (white, TC treated, Falcon plate) such that the final concentration of the compounds in 20 μL/well cell will be 5 μg/ml (final concentration of DMSO=0.25% and final compound concentration=20 μM). Vials of frozen reporter cells are thawed by warming the vial in a 37° C. water bath for 60-120 seconds with some shaking until the cells formed a suspension. The thawed cells are transferred into a cold 50 ml (or larger) tube and mixed well by gentle pipetting. The appropriate amount of cold Phenol Red Free RPMI medium-1640 (GIBCO, Cat #11835-030) with L-glutamine is added, both with ˜5% FBS (GIBCO-BRL, Cat. #16000-044), so that 20 μl of the final cell suspension will contain ˜5,000 cells. The cell dilution is done such that the final concentration of FBS is ˜5%.
Diluted cells (20 μl) are added into each well in a 384 well plate. The plate is incubated at 37° C. under 5% CO2 for ˜20 h. Bright-Glo substrate, 2.5 μl/well is added, and the Fire Fly Luciferase is measured using VLUX (60 second exposure) immediately after the substrate is added. Test compounds are dissolved in DMSO (100%) and added to specified wells. Raw luciferase signal data obtained as relative luminescence units (RLUs) for the test compounds are normalized to the signal of the mean of the sample reporter cell plate with DMSO.

`CC1(O)CCN(c2nccc(-c3ccc4ccccc4c3)n2)CC1` [4-methyl-1-[4-(2-naphthyl)pyrimidin-2-yl]piperidin-4-ol]: under setting [1], the fold induction at 20 µM is 1.09.

On to `Cc1ccc(S(=O)(=O)N[C@H]2CC[C@H](Nc3nccc(-c4ccc5ccccc5c4)n3)CC2)cc1` [4-methyl-N-(trans-4-{[4-(2-naphthyl)pyrimidin-2-yl]amino}cyclohexyl)benzenesulfonamide], for which the “A = MAX FOLD Induction/DMSO CONTROL” value is 1.230 fold. In addition, the fold induction at 2 µM under setting [2] is 1.78. The fold induction at 20 µM under setting [1] is 1.13.

For `Cc1ccc(S(=O)(=O)NCC2CN(c3nccc(-c4ccc5ccccc5c4)n3)C2)cc1` [4-methyl-N-({1-[4-(2-naphthyl)pyrimidin-2-yl]azetidin-3-yl}methyl)benzenesulfonamide], the fold induction at 2 µM under setting [2] amounted to 1.16. Also, the fold induction at 20 µM under setting [1] came to 0.28.

Consider `Cc1ccc(S(=O)(=O)NCC2CCN(c3nccc(-c4ccc5ccccc5c4)n3)CC2)cc1` [4-methyl-N-({1-[4-(2-naphthyl)pyrimidin-2-yl]piperidin-4-yl}methyl)benzenesulfonamide], for which the fold induction at 2 µM under setting [2] is 1.07. Moreover, the fold induction at 20 µM under setting [1] amounted to 0.41.

As to `Cc1ccc(S(=O)(=O)NC2CCCN(c3nccc(-c4ccc5ccccc5c4)n3)CC2)cc1` (stereo not shown) [4-methyl-N-{1-[4-(2-naphthyl)pyrimidin-2-yl]azepan-4-yl}benzenesulfonamide], the “A = MAX FOLD Induction/DMSO CONTROL” value stood at 0.780 fold. Also, under setting [2], the fold induction at 2 µM stood at 1.49. Also, the fold induction at 20 µM under setting [1] came to 2.26.

`Cc1ccc(S(=O)(=O)N[C@@H]2CCN(c3nccc(-c4ccc5ccccc5c4)n3)C2)cc1` [4-methyl-N-{(3R)-1-[4-(2-naphthyl)pyrimidin-2-yl]pyrrolidin-3-yl}benzenesulfonamide]: the fold induction at 2 µM under setting [2] was determined as 1.44. Moreover, the fold induction at 20 µM under setting [1] turned out to be 0.09.

Consider `Cc1ccc(S(=O)(=O)N[C@H]2CCN(c3nccc(-c4ccc5ccccc5c4)n3)C2)cc1` [4-methyl-N-{(3S)-1-[4-(2-naphthyl)pyrimidin-2-yl]pyrrolidin-3-yl}benzenesulfonamide], for which the fold induction at 2 µM under setting [2] was determined as 1.24.

`c1ccc2cc(-c3ccnc(N4CC[C@@H](N5CCOCC5)C4)n3)ccc2c1` [4-{(3R)-1-[4-(2-naphthyl)pyrimidin-2-yl]pyrrolidin-3-yl}morpholine]: the “A = MAX FOLD Induction/DMSO CONTROL” value was 1.290 fold. Besides, the fold induction at 2 µM under setting [2] was 1.2. For the same compound, the fold induction at 20 µM under setting [1] came to 2.45.

As to `O=C1CN([C@@H]2CCN(c3nccc(-c4ccc5ccccc5c4)n3)C2)CCN1` [4-{(3R)-1-[4-(2-naphthyl)pyrimidin-2-yl]pyrrolidin-3-yl}piperazin-2-one], the EC50 (as a rule, the concentration needed to bring the measured effect to its halfway point) was determined as 5.74 µM and the “A = MAX FOLD Induction/DMSO CONTROL” value was determined as 2.874 fold. Also, the fold induction at 2 µM under setting [2] was determined as 1.25. The fold induction at 20 µM under setting [1] was found to be 2.33.

Turning to `c1ccc2cc(-c3ccnc(N4CC[C@H](N5CCOCC5)C4)n3)ccc2c1` [4-{(3S)-1-[4-(2-naphthyl)pyrimidin-2-yl]pyrrolidin-3-yl}morpholine], the EC50 came out at 7.5 µM and the “A = MAX FOLD Induction/DMSO CONTROL” value is 2.405 fold. In addition, under setting [2], the fold induction at 2 µM turned out to be 1.17. Under setting [1], the fold induction at 20 µM came out at 3.06.

Regarding `O=C1CN([C@H]2CCN(c3nccc(-c4ccc5ccccc5c4)n3)C2)CCN1` [4-{(3S)-1-[4-(2-naphthyl)pyrimidin-2-yl]pyrrolidin-3-yl}piperazin-2-one], the response was half-maximal at 6.88 µM (EC50) and the “A = MAX FOLD Induction/DMSO CONTROL” value is on record as 3.585 fold. For the same compound, under setting [2], the fold induction at 2 µM amounted to 1.28. Moreover, the fold induction at 20 µM under setting [1] came to 3.16.

Consider `NC(=O)N1CCC(Nc2nccc(-c3ccc4ccccc4c3)n2)CC1` [4-{[4-(2-naphthyl)pyrimidin-2-yl]amino}piperidine-1-carboxamide], for which the EC50 came out at 5.28 µM and the “A = MAX FOLD Induction/DMSO CONTROL” value came to 3.552 fold. Also, under setting [2], the fold induction at 2 µM amounted to 1.31. The fold induction at 20 µM under setting [1] came to 3.17.

Regarding `O=CN1CCCN(Cc2nccc(-c3ccc4ccccc4c3)n2)CC1` [4-{[4-(2-naphthyl)pyrimidin-2-yl]methyl}-1,4-diazepane-1-carbaldehyde], the fold induction at 2 µM under setting [2] is 1.15. Further, the fold induction at 20 µM under setting [1] was found to be 1.13.

Consider `CN(c1nccc(-c2ccc3ccccc3c2)n1)C1CCN(C=O)CC1` [4-{methyl[4-(2-naphthyl)pyrimidin-2-yl]amino}piperidine-1-carbaldehyde], for which the fold induction at 2 µM under setting [2] turned out to be 1.73. Moreover, under setting [1], the fold induction at 20 µM stood at 1.29.

Regarding `CN(c1nccc(-c2ccc3ccccc3c2)n1)C1CCN(C(N)=O)CC1` [4-{methyl[4-(2-naphthyl)pyrimidin-2-yl]amino}piperidine-1-carboxamide], the fold induction at 2 µM under setting [2] came out at 1.65. Under setting [1], the fold induction at 20 µM is 0.63.

On to `CN(c1nccc(-c2ccc3ccccc3c2)n1)C1CCN(C(=N)N)CC1` [4-{methyl[4-(2-naphthyl)pyrimidin-2-yl]amino}piperidine-1-carboximidamide], for which the fold induction at 2 µM under setting [2] is 1.74.

Turning to `c1ccc2cc(-c3ccnc(N4CC5CCNC5C4)n3)ccc2c1` (stereo not shown) [5-(4-naphthalen-2-ylpyrimidin-2-yl)octahydropyrrolo[3,4-b]pyrrole], the fold induction at 2 µM under setting [2] came out at 1.5.

As to `CN(C)c1cccc2c(S(=O)(=O)N[C@H]3CC[C@H](Nc4nccc(-c5ccc6ccccc6c5)n4)CC3)cccc12` [5-(dimethylamino)-N-(trans-4-{[4-(2-naphthyl)pyrimidin-2-yl]amino}cyclohexyl)naphthalene-1-sulfonamide], under setting [2], the fold induction at 2 µM was determined as 1.43. For the same compound, the fold induction at 20 µM under setting [1] was found to be 1.34.

`c1ccc2cc(-c3ccnc(N4CC[C@@H](N5CC6CCNC6C5)C4)n3)ccc2c1` (stereo partly drawn) [5-{(3R)-1-[4-(2-naphthyl)pyrimidin-2-yl]pyrrolidin-3-yl}octahydropyrrolo[3,4-b]pyrrole]: the fold induction at 2 µM under setting [2] was 2.2.

`c1ccc2cc(-c3ccnc(N4CC[C@H](N5CC6CCNC6C5)C4)n3)ccc2c1` (stereo partly drawn) [5-{(3S)-1-[4-(2-naphthyl)pyrimidin-2-yl]pyrrolidin-3-yl}octahydropyrrolo[3,4-b]pyrrole]: the fold induction at 2 µM under setting [2] is 2.2.

As for `NCC1CCN(c2nccc(-c3ccc4cc(O)ccc4c3)n2)CC1` [6-{2-[4-(aminomethyl)piperidin-1-yl]pyrimidin-4-yl}-2-naphthol], under setting [2], the fold induction at 2 µM stood at 1.88. Besides, the fold induction at 20 µM under setting [1] was 0.015.

Regarding `c1ccc2cc(-c3ccnc(N4CCC5(CC4)OCCO5)n3)ccc2c1` [8-[4-(2-naphthyl)pyrimidin-2-yl]-1,4-dioxa-8-azaspiro[4.5]decane], under setting [3], the fold induction at 2 µM came out at 1.5. Under setting [4], the fold induction at 20 µM amounted to 1.74.

With `OCC1CCCN([C@@H]2CCN(c3nccc(-c4ccc5ccccc5c4)n3)C2)C1` (stereo partly drawn) [(1-{(3R)-1-[4-(2-naphthyl)pyrimidin-2-yl]pyrrolidin-3-yl}piperidin-3-yl)methanol], the fold induction at 2 µM under setting [2] worked out at 1.49.

As for `OCC1CCN([C@@H]2CCN(c3nccc(-c4ccc5ccccc5c4)n3)C2)CC1` [(1-{(3R)-1-[4-(2-naphthyl)pyrimidin-2-yl]pyrrolidin-3-yl}piperidin-4-yl)methanol], the fold induction at 2 µM under setting [2] was determined as 1.69. For the same compound, the fold induction at 20 µM under setting [1] was 0.01.

With `OCC1CCCN([C@H]2CCN(c3nccc(-c4ccc5ccccc5c4)n3)C2)C1` (stereo partly drawn) [(1-{(3S)-1-[4-(2-naphthyl)pyrimidin-2-yl]pyrrolidin-3-yl}piperidin-3-yl)methanol], the fold induction at 2 µM under setting [2] was 1.88. The fold induction at 20 µM under setting [1] worked out at 0.01.

With `OCC1CCN([C@H]2CCN(c3nccc(-c4ccc5ccccc5c4)n3)C2)CC1` [(1-{(3S)-1-[4-(2-naphthyl)pyrimidin-2-yl]pyrrolidin-3-yl}piperidin-4-yl)methanol], the fold induction at 2 µM under setting [2] is 1.72. Further, the fold induction at 20 µM under setting [1] was 0.94.

Regarding `CC(C)(O)[C@H](N)C1CCN(c2nccc(-c3ccc4ccccc4c3)n2)CC1` [(1R)-1-amino-2-methyl-1-{1-[4-(2-naphthyl)pyrimidin-2-yl]piperidin-4-yl}propan-2-ol], under setting [2], the fold induction at 2 µM was found to be 1.78.

As to `C[C@@H](N)C1CCN(c2nccc(-c3ccc4ccccc4c3)n2)CC1` [(1R)-1-{1-[4-(2-naphthyl)pyrimidin-2-yl]piperidin-4-yl}ethanamine], the EC50 is 0.87 µM and the “A = MAX FOLD Induction/DMSO CONTROL” value is on record as 2.280 fold.

`C[C@H](N)C1CCN(c2nccc(-c3ccc4ccccc4c3)n2)CC1` [(1S)-1-{1-[4-(2-naphthyl)pyrimidin-2-yl]piperidin-4-yl}ethanamine]: the EC50 was determined as 0.865 µM and the “A = MAX FOLD Induction/DMSO CONTROL” value stood at 1.940 fold.

For the compound `CN1C[C@@H]2C[C@H]1CN2[C@@H]1CCN(c2nccc(-c3ccc4ccccc4c3)n2)C1` [(1S,4S)-2-methyl-5-{(3R)-1-[4-(2-naphthyl)pyrimidin-2-yl]pyrrolidin-3-yl}-2,5-diazabicyclo[2.2.1]heptane], the fold induction at 2 µM under setting [2] was determined as 1.5.

Turning to `NCCN1CCN(c2nccc(-c3ccc4ccccc4c3)n2)CC1` [(2-{4-[4-(2-naphthyl)pyrimidin-2-yl]piperazin-1-yl}ethyl)amine], the fold induction at 2 µM under setting [3] stood at 1. Also, under setting [4], the fold induction at 20 µM is 1.79.

`N[C@@H](CO)C1CCN(c2nccc(-c3ccc4ccccc4c3)n2)CC1` [(2R)-2-amino-2-{1-[4-(2-naphthyl)pyrimidin-2-yl]piperidin-4-yl}ethanol]: the “A = MAX FOLD Induction/DMSO CONTROL” value amounted to 1.660 fold. Under setting [2], the fold induction at 2 µM was found to be 2.96.

For the compound `O[C@@H]1CCCN(CC2CCN(c3nccc(-c4ccc5ccccc5c4)n3)C2)C1` (stereo partly drawn) [(3R)-1-({1-[4-(2-naphthyl)pyrimidin-2-yl]pyrrolidin-3-yl}methyl)piperidin-3-ol], the concentration for a half-maximal effect (EC50) was 1.03 µM and the “A = MAX FOLD Induction/DMSO CONTROL” value is on record as 3.745 fold. The fold induction at 2 µM under setting [2] is 2.34. Moreover, under setting [1], the fold induction at 20 µM was found to be 0.01.
